Measured values from ChEMBL document CHEMBL1132777, “Novel, potent and selective chimeric FXa inhibitors featuring hydrophobic P1-ketoamide moieties” (Bioorg Med Chem Lett, 2000).

Legend:
[1] = molecular target: T1, Coagulation factor X (Homo sapiens, UniProt P00742); assay: Inhibitory activity against Coagulation factor X
Target sequence in this assay (P00742 41-179 limits assumed): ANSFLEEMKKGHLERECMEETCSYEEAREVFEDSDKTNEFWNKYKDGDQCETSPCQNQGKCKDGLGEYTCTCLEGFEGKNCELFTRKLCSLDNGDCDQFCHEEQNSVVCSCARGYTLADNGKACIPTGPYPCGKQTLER
Target sequence in this assay (P00742 235-488 limits assumed): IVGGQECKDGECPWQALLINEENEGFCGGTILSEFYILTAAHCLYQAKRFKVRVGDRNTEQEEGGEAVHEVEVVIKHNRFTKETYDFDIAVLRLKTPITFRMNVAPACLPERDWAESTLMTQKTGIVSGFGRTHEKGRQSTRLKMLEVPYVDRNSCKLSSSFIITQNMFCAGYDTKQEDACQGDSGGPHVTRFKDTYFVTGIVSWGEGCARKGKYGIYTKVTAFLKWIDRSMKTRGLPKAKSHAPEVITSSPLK

[2] = molecular target: T2, Plasminogen (Homo sapiens, UniProt P00747); assay: In vitro inhibitory activity against plasmin
[3] = molecular target: T3, Prothrombin (Homo sapiens, UniProt P00734); assay: In vitro inhibitory activity against Thrombin (FIIa)
[4] = molecular target: T4, Serine protease 1 (Homo sapiens, UniProt P07477); assay: In vitro inhibitory activity against Human trypsin
[5] = molecular target: T2, Plasminogen; assay: In vitro inhibitory activity against plasmin; inactive
[6] = molecular target: T4, Serine protease 1; assay: In vitro inhibitory activity against Human trypsin; inactive
[7] = molecular target: T1, Coagulation factor X; assay: In vitro inhibitory activity against prothrombinase (PTase) complex
Target sequence in this assay (P00742 whole entry): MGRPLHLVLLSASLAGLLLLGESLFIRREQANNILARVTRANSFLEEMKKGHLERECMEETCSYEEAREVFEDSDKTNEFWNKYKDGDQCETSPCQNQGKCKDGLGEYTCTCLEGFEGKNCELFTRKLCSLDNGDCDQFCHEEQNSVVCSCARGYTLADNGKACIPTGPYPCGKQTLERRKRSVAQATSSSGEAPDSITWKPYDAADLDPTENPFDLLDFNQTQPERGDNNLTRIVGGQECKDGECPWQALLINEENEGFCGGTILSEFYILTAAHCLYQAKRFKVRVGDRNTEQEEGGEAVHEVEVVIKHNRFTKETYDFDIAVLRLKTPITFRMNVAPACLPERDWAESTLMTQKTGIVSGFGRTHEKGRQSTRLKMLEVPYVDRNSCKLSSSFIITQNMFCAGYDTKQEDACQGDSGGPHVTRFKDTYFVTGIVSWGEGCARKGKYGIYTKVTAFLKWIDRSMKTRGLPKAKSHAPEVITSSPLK

[8] = molecular target: T3, Prothrombin; assay: In vitro inhibitory activity against Thrombin (FIIa); inactive

T2 sequence (P00747 97-580 limits assumed): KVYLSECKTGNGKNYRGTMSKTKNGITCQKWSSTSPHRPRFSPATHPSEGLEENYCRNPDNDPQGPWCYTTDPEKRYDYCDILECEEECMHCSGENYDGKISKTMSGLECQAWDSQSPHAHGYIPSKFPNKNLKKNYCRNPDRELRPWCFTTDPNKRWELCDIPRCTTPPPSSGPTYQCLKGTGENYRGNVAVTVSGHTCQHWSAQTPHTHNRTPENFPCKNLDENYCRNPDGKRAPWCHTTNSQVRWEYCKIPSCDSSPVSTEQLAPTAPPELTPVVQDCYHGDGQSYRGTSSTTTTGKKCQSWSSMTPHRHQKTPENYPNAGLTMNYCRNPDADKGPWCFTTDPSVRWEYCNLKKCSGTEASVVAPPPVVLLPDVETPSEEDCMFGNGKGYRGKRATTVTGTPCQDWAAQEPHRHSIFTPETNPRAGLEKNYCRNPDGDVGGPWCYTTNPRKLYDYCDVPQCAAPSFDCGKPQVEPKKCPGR
T2 sequence (P00747 581-810 limits assumed): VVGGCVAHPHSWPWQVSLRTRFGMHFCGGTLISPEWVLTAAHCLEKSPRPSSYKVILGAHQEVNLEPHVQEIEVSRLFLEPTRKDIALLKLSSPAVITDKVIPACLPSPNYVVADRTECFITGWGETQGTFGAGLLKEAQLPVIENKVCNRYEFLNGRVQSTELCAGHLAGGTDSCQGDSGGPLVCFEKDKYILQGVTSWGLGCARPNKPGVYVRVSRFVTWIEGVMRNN
T4 sequence (P07477 whole entry): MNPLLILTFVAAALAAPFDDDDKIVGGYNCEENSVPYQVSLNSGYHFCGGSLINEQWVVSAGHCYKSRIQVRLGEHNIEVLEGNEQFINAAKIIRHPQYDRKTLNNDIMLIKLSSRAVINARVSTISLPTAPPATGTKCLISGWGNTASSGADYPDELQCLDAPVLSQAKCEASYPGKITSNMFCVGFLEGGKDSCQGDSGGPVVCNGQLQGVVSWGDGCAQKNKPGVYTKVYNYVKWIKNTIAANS

Row | Compound | IC50 [1] | IC50 [2] | IC50 [3] | IC50 [4] | IC50 [5] | IC50 [6] | IC50 [7] | IC50 [8]
1 | CCCCCNC(=O)C(=O)[C@H](CC1CCCCC1)NC(=O)CN(C)C(=O)[C@@H](CCCN=C(N)N)NS(=O)(=O)Cc1ccccc1 | 1.87 nM | > 2500 nM | 3830 nM | 163 nM | – | – | – | –
2 | CCOC(=O)CNC(=O)C(=O)[C@H](CC1CCCCC1)NC(=O)CN(C)C(=O)[C@@H](CCCN=C(N)N)NS(=O)(=O)Cc1ccccc1 | 2.13 nM | – | > 2500 nM | – | Not Active | Not Active | – | –
3 | CCOC(=O)CNC(=O)C(=O)[C@H](Cc1ccccc1)NC(=O)CN(C)C(=O)[C@@H](CCCN=C(N)N)NS(=O)(=O)Cc1ccccc1 | 6.6 nM | – | > 2500 nM | > 2500 nM | Not Active | – | 25.1 nM | –
4 | CCOC(=O)CNC(=O)C(=O)[C@H](Cc1ccc(OC(C)(C)C)cc1)NC(=O)CN(C)C(=O)[C@@H](CCCN=C(N)N)NS(=O)(=O)Cc1ccccc1.O=C(O)C(F)(F)F | 246 nM | > 2500 nM | – | – | – | Not Active | – | Not Active
5 | CN(CC(=O)N[C@H]1CCCC(C(=N)N)C1O)C(=O)[C@@H](CCCN=C(N)N)NS(=O)(=O)Cc1ccccc1 (some centres undefined) | 0.86 nM | 1200 nM | > 2500 nM | 74.7 nM | – | – | 3.4 nM | –
6 | CCOC(=O)CNC(=O)C(=O)[C@H](Cc1ccc(O)cc1)NC(=O)CN(C)C(=O)[C@@H](CCCN=C(N)N)NS(=O)(=O)Cc1ccccc1.O=C(O)C(F)(F)F | 7.63 nM | – | > 2500 nM | – | Not Active | Not Active | 29.2 nM | –
7 | CN(CC(=O)N[C@@H](Cc1ccccc1)C(=O)C(=O)NCC(=O)NCCc1ccccc1)C(=O)[C@@H](CCCN=C(N)N)NS(=O)(=O)Cc1ccccc1.O=C(O)C(F)(F)F | 7.89 nM | – | > 2500 nM | – | Not Active | Not Active | 25.9 nM | –
8 | CN(CC(=O)N[C@@H](CC1CCCCC1)C(=O)C(=O)NCCc1ccccc1)C(=O)[C@@H](CCCN=C(N)N)NS(=O)(=O)Cc1ccccc1 | 13.2 nM | – | 2210 nM | > 2500 nM | Not Active | – | – | –
9 | CN(CC(=O)N[C@@H](CC1CCCCC1)C(=O)C(=O)NCc1ccc2c(c1)OCO2)C(=O)[C@@H](CC/N=C(\N)N[N+](=O)[O-])NS(=O)(=O)Cc1ccccc1 | 46.4 nM | – | > 2500 nM | – | Not Active | Not Active | – | –
10 | CN(CC(=O)N[C@@H](CC1CCCCC1)C(=O)C(=O)NCc1ccccc1)C(=O)[C@@H](CCCN=C(N)N)NS(=O)(=O)Cc1ccccc1 | 3.26 nM | > 2500 nM | 1960 nM | 2500 nM | – | – | – | –
